The results in this text go back to ChEMBL document CHEMBL5055641, “First Total Synthesis and Structure-Activity Relationship of Iheyamide A, an Antitrypanosomal Linear Peptide Isolated from a Dapis sp. Marine Cyanobacterium” (J Nat Prod, 2021).

Each structure is given as a SMILES string.

Test [1] deals with Trypanosoma brucei rhodesiense. Description: Antitrypanosomal activity against Trypanosoma brucei rhodesiense IL-1501 assessed as inhibition of parasitic growth incubated for 69 hrs by resazurin dye based fluorescence assay. It counts as functional, organism-based. The following applies: IL-1501, 69 h. A general note: Resazurin is reduced to fluorescent resorufin, in cell work by metabolically active cells.

The subject of the next test is WI-38. Description: Cytotoxicity against human WI-38 cells assessed as inhibition of cell proliferation incubated for 72 hrs by MTT assay. The class given is cell-based. The following applies: WI-38, 72 h. For orientation: Tetrazolium dyes change colour on reduction, which living cells bring about.

On to `COC1=CC(=O)N[C@H]1C(C)C`, for which the IC50 (usually the point on the concentration scale where inhibition reaches its midpoint) in test [1] was 35 µM; in the test with WI-38, more than 50 µM. The corresponding values for `CC[C@H](C)[C@@H](C(=O)N1CCC[C@@H]1C(=O)N1C(=O)C=C(OC)[C@@H]1C(C)C)N(C)C(=O)[C@@H]1CCCN1C(=O)[C@H](C(C)C)N(C)C(=O)[C@@H](Cc1ccccc1)NC(=O)[C@H](Cc1ccccc1)N(C)C` are 1.8 µM and more than 20 µM.

For the compound `CC[C@H](C)[C@H](NC)C(=O)N1CCCC1C(=O)N1C(=O)C=C(OC)[C@@H]1C(C)C` (single isomer, unassigned), the IC50 was 24 µM in test [1] and more than 50 µM in the test with WI-38.

As to `COC1=CC(=O)N(C(=O)C2CCCN2)[C@H]1C(C)C` (single isomer, unassigned), the IC50 was 33 µM in test [1] and more than 50 µM in the test on WI-38. The corresponding values for `CC[C@H](C)[C@@H](C(=O)N1CCCC1C(=O)N1C(=O)C=C(OC)[C@@H]1C(C)C)N(C)C(=O)[C@@H]1CCCN1` (single isomer, unassigned) are 15 µM and more than 50 µM.

`CC[C@H](C)[C@@H](C(=O)N1CCCC1C(=O)N1C(=O)C=C(OC)[C@@H]1C(C)C)N(C)C(=O)[C@@H]1CCCN1C(=O)[C@@H](NC)C(C)C` (single isomer, unassigned): the figures for the IC50 (in test [1]; in the test with WI-38) were 17 µM and more than 50 µM, respectively. For `N=C(N)c1ccc(OCCCCCOc2ccc(C(=N)N)cc2)cc1` [PENTAMIDINE], the IC50 in test [1] stood at 0.005 µM.
